Measurements reported in patent publication US20100267561A1, “HERBICIDAL PYRIDAZINONE DERIVATIVES” (priority 2007, published 2010).

Tests used:
Format in all cases: in vivo
[1] = test system: barnyardgrass (Echinochloa crus-galli); test: Test B flooded paddy test plant response
Outline: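 Compounds were added directly to paddy water over 2-leaf-stage plants in pots flooded 3 cm above soil, water depth maintained. Visual injury scored against controls after 13 to 15 days in greenhouse, 0 (none) to 100 (complete control); dash indicates no result.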

[2] = test system: chickweed (Stellaria media); test: Test B postemergence plant response; settings: for Plant response rating, Chickweed: Postemergence
Outline: (§1)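 Visual injury ratings on a 0–100 scale, where 100 means complete control, were made 13 to 15 days after postemergence treatment of greenhouse-grown plants at the 1- to 4-leaf stage.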

[3] = test system: winter barley (Hordeum vulgare); test: Test B postemergence plant response; settings: for Plant response rating, Barley: Postemergence, scale 0 to 100, 0 no effect, 100 complete control
Outline: as §1

[4] = test system: windgrass (Apera spica-venti); test: Test B postemergence plant response; settings: for Plant response rating, Windgrass: Postemergence
Outline: as §1

[5] = test system: canarygrass (Phalaris minor); test: Test B postemergence plant response; settings: for Plant response rating, Canarygrass: Postemergence
Outline: as §1

[6] = test system: lambsquarters (Chenopodium album); test: Test B pre-/postemergence plant response; settings: for Lambsquarters plant response rating: 8 g ai/ha
Outline: (§2)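 Visual scoring from 0 (no effect) to 100 (complete control) against untreated controls was done 13 to 15 days after greenhouse treatment. Chemicals were formulated in a surfactant-containing non-phytotoxic solvent and applied to soil preemergence or to 1- to 4-leaf (2-18 cm) plants postemergence.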

[7] = test system: bermudagrass (Cynodon dactylon); test: Test B pre-/postemergence plant response; settings: for Bermudagrass plant response rating: 8 g ai/ha
Outline: as §2

[8] = test system: eastern black (E.B.) nightshade (Solanum ptycanthum); test: Test B pre-/postemergence plant response; settings: Preemergence
Outline: as §2

[9] = test system: blackgrass (Alopecurus myosuroides); test: Test B pre-/postemergence plant response; settings: for Blackgrass plant response rating: 8 g ai/ha
Outline: as §2

[10] = test system: velvetleaf (Abutilon theophrasti); test: Test B pre-/postemergence plant response; settings: for Velvetleaf plant response rating: 8 g ai/ha
Outline: as §2

[11] = test system: yellow nutsedge (Cyperus esculentus); test: Test B pre-/postemergence plant response; settings: for Nutsedge, Yellow plant response rating: 8 g ai/ha
Outline: as §2

wild oat (Avena fatua) = test: Test B pre-/postemergence plant response; settings: for Oat, Wild plant response rating: 8 g ai/ha
Outline: as §2

[12] = test system: morningglory (Ipomoea coccinea); test: Test B pre-/postemergence plant response; settings: for Morningglory plant response rating: 8 g ai/ha
Outline: as §2

[13] = test system: giant foxtail (Setaria faberii); test: Test B pre-/postemergence plant response; settings: for Foxtail, Giant plant response rating: 8 g ai/ha
Outline: as §2

corn (Zea mays) = test: Test B pre-/postemergence plant response; settings: for Corn plant response rating: 8 g ai/ha
Outline: as §2

[14] = 8 g ai/ha, postemergence, 0-100 scale
[15] = 31 g ai/ha, scale 0 to 100, 0 no effect, 100 complete control
[16] = 62 g ai/ha, scale 0 to 100, 0 no effect, 100 complete control
[17] = Postemergence, 16 g ai/ha, scale 0 to 100
[18] = Postemergence, 31 g ai/ha, scale 0 to 100, 0 no effect, 100 complete control
[19] = Postemergence, 62 g ai/ha, scale 0 to 100, 0 no effect, 100 complete control
[20] = Preemergence, 16 g ai/ha, scale 0 to 100 (0 no effect, 100 complete control)
[21] = Preemergence, 31 g ai/ha, 0 to 100 scale, 0 no effect, 100 complete control
[22] = Preemergence, 62 g ai/ha, scale 0 to 100

Cc1cc(-c2ccc(Cl)cc2)nn1-c1c(OC(=O)C(C)C)cnn(C)c1=O [Compound 34]
Plant response rating, Barnyardgrass ([1]; Flood (flooded paddy test), 62 g ai/ha, scale 0 to 100, 0 no effect, 100 complete control): 50 | Plant response rating, Barnyardgrass ([1]; Flood (flooded paddy test), 125 g ai/ha, scale 0 to 100, 0 no effect, 100 complete control): 100 | Plant response rating, Barnyardgrass ([1]; Flood (flooded paddy test), 250 g ai/ha, scale 0 to 100, 0 no effect, 100 complete control): 100 | Plant response rating, Barnyardgrass ([1]; Flood, 31 g ai/ha, scale 0 to 100): 40 | Chickweed plant response rating [2, 14]: 0 | Plant response rating, Chickweed ([2]; 16 g ai/ha, scale 0 to 100): 0 | Plant response rating, Chickweed [2, 15]: 0 | Plant response rating, Chickweed [2, 16]: 0 | Barley plant response rating [3, 14]: 0 | Plant response rating, Barley ([3]; 16 g ai/ha): 0 | Plant response rating, Barley ([3]; 31 g ai/ha): 0 | Plant response rating, Barley ([3]; 62 g ai/ha): 15 | Windgrass plant response rating [4, 14]: 0 | Plant response rating, Windgrass ([4]; 16 g ai/ha, scale 0 to 100): 10 | Plant response rating, Windgrass [4, 16]: 80 | Canarygrass plant response rating [5, 14]: 10 | Plant response rating, Canarygrass ([5]; 16 g ai/ha, scale 0 to 100): 10 | Plant response rating, Canarygrass [5, 15]: 20 | Plant response rating, Canarygrass [5, 16]: 20 | Lambsquarters plant response rating ([6]; postemergence, 0-100 scale): 0 | Plant response rating, Lambsquarters [6, 17]: 0 | Plant response rating, Lambsquarters [6, 18]: 0 | Plant response rating, Lambsquarters [6, 19]: 0 | Plant response rating, Lambsquarters [6, 20]: 0 | Plant response rating, Lambsquarters [6, 21]: 0 | Plant response rating, Lambsquarters [6, 22]: 0 | Lambsquarters plant response rating ([6]; Preemergence, scale 0 to 100): 0 | Bermudagrass plant response rating ([7]; postemergence, 0-100 scale): 65 | Plant response rating, Bermudagrass [7, 17]: 100 | Plant response rating, Bermudagrass [7, 18]: 100 | Plant response rating, Bermudagrass [7, 19]: 100 | Bermudagrass plant response rating ([7]; Preemergence, scale 0 to 100 (0 no effect, 100 complete control)): 50 | Plant response rating, Bermudagrass [7, 20]: 98 | Plant response rating, Bermudagrass [7, 21]: 98 | Plant response rating, Bermudagrass [7, 22]: 100 | Plant response rating, Nightshade, E. B. ([8]; 16 g ai/ha, scale 0 to 100 (0 no effect, 100 complete control)): 0 | Plant response rating, Nightshade, E. B. ([8]; 31 g ai/ha, 0 to 100 scale, 0 no effect, 100 complete control): 0 | Plant response rating, Nightshade, E. B. ([8]; 62 g ai/ha, scale 0 to 100): 0 | Nightshade, E. B. plant response rating ([8]; 8 g ai/ha, scale 0 to 100): 0 | Blackgrass plant response rating ([9]; postemergence, 0-100 scale): 0 | Plant response rating, Blackgrass [9, 17]: 75 | Plant response rating, Blackgrass [9, 18]: 75 | Plant response rating, Blackgrass [9, 19]: 90 | Plant response rating, Blackgrass [9, 20]: 85 | Plant response rating, Blackgrass [9, 21]: 100 | Plant response rating, Blackgrass [9, 22]: 100 | Blackgrass plant response rating ([9]; Preemergence, scale 0 to 100): 0 | Velvetleaf plant response rating ([10]; postemergence, 0-100 scale): 0 | Plant response rating, Velvetleaf [10, 17]: 0 | Plant response rating, Velvetleaf [10, 19]: 0 | Plant response rating, Velvetleaf [10, 20]: 0 | Plant response rating, Velvetleaf [10, 21]: 0 | Plant response rating, Velvetleaf [10, 22]: 0 | Velvetleaf plant response rating ([10]; Preemergence, scale 0 to 100): 0 | Nutsedge, Yellow plant response rating ([11]; postemergence, 0-100 scale): 0 | Plant response rating, Nutsedge, Yellow [11, 17]: 0 | Plant response rating, Nutsedge, Yellow [11, 18]: 0 | Plant response rating, Nutsedge, Yellow [11, 19]: 0 | Plant response rating, Nutsedge, Yellow [11, 20]: 0 | Plant response rating, Nutsedge, Yellow [11, 21]: 0 | Plant response rating, Nutsedge, Yellow [11, 22]: 0 | Nutsedge, Yellow plant response rating ([11]; Preemergence, scale 0 to 100): 0 | Oat, Wild plant response rating (wild oat (Avena fatua); postemergence, 0-100 scale): 70 | Plant response rating, Oat, Wild (wild oat (Avena fatua); [17]): 90 | Plant response rating, Oat, Wild (wild oat (Avena fatua); [18]): 95 | Plant response rating, Oat, Wild (wild oat (Avena fatua); [19]): 100 | Plant response rating, Oat, Wild (wild oat (Avena fatua); [21]): 85 | Plant response rating, Oat, Wild (wild oat (Avena fatua); [22]): 90 | Oat, Wild plant response rating (wild oat (Avena fatua); Preemergence, scale 0 to 100): 40 | Morningglory plant response rating ([12]; postemergence, 0-100 scale): 0 | Plant response rating, Morningglory [12, 17]: 0 | Plant response rating, Morningglory [12, 18]: 0 | Plant response rating, Morningglory [12, 19]: 0 | Plant response rating, Morningglory [12, 20]: 0 | Plant response rating, Morningglory [12, 21]: 0 | Plant response rating, Morningglory [12, 22]: 0 | Morningglory plant response rating ([12]; Preemergence, scale 0 to 100): 0 | Foxtail, Giant plant response rating ([13]; postemergence, 0-100 scale): 80 | Plant response rating, Foxtail, Giant [13, 17]: 90 | Plant response rating, Foxtail, Giant [13, 18]: 100 | Plant response rating, Foxtail, Giant [13, 19]: 100 | Plant response rating, Foxtail, Giant [13, 20]: 100 | Plant response rating, Foxtail, Giant [13, 21]: 100 | Plant response rating, Foxtail, Giant [13, 22]: 100 | Foxtail, Giant plant response rating ([13]; Preemergence, scale 0 to 100): 98 | Corn plant response rating (corn (Zea mays); postemergence, 0-100 scale): 0 | Plant response rating, Corn (corn (Zea mays); [17]): 98 | Plant response rating, Corn (corn (Zea mays); [18]): 98 | Plant response rating, Corn (corn (Zea mays); [19]): 98 | Plant response rating, Corn (corn (Zea mays); [20]): 65 | Plant response rating, Corn (corn (Zea mays); [21]): 85 | Plant response rating, Corn (corn (Zea mays); [22]): 95 | Corn plant response rating (corn (Zea mays); Preemergence, scale 0 to 100): 0
